Measured values from ChEMBL document CHEMBL4420066, “Aryl amine substituted quinoxaline used as anticancer drugs” (2017).
The source made the active and inactive calls. No cut-off for these calls is given here.

Tests used:
Homo sapiens [1] = species on record: Homo sapiens; experiment: Inhibition of PP2A-B5 protein expression in human PLC5 cells at 1 uM incubated for 24 hrs by Western blotting analysis; format: functional, cell-based
[2] = biological target: T1, Serine/threonine-protein kinase AKT (Homo sapiens) (UniProt P31751+Q9Y243+P31749); experiment: Inhibition of Akt phosphorylation at S473 residue in human SKHEP1 cells by Western blotting analysis; format: cell-based
Homo sapiens [3] = species on record: Homo sapiens; experiment: Activation of PP2A in human PLC5 cells assessed as increase in protein phosphatase activity at 1 uM incubated for 24 hrs using phosphopeptide substrate incubated for 10 mins by malachite green-phosphate complex assay; format: cell-based
[4] = biological target: T1, Serine/threonine-protein kinase AKT (Homo sapiens); experiment: Inhibition of Akt phosphorylation at S473 residue in human Hep3B cells by Western blotting analysis; format: cell-based
HA22T cell line [5] = experiment: Inhibition of CIP2A protein expression in human HA22T cells at 1 uM by Western blotting analysis; format: functional, cell-based; details: TDE = time-dependent effect
HA22T cell line [6] = experiment: Inhibition of CIP2A protein expression in human HA22T cells assessed as CIP2A protein expression ratio level at 0.5 uM by Western blotting analysis (Rvb =1); format: functional
Homo sapiens [7] = species on record: Homo sapiens; experiment: Activation of PP2A in human SKHEP1 cells assessed as increase in protein phosphatase activity at 1 uM incubated for 24 hrs using phosphopeptide substrate incubated for 10 mins by malachite green-phosphate complex assay; format: cell-based
Hep 3B2 [8] = experiment: Induction of apoptosis in human Hep3B cells at 2 uM in presence of caspase inhibitor Z-VAD-fmk incubated for 48 hrs by annexin-V-FITC staining based by flow cytometry; format: functional, cell-based
Homo sapiens [9] = species on record: Homo sapiens; experiment: Induction of apoptosis in human PLC5 cells assessed as caspase-3 activation at 0.5 to 4 uM incubated for 48 hrs by Western blotting analysis; format: functional, cell-based
Hep 3B2 [10] = experiment: Inhibition of CIP2A protein expression in human Hep3B cells by Western blotting analysis; format: functional, cell-based
Homo sapiens [11] = species on record: Homo sapiens; experiment: Inhibition of His-tagged recombinant human SET1 protein (1 to 290 amino acids) expressed in Escherichia coli interaction with N-terminal GST-tagged recombinant human PP2A-C (1 to 309 amino acids) assessed as minimal concentration causing disruption of SET-PP2Ac binding by SPR assay
Mus musculus = experiment: Suppression of CIP2A expression in tumor of human PLC5 cells xenografted in mouse at 10 mg/kg dosed for 4 weeks by Western blot analysis; format: functional, organism-based
Hep 3B2 [12] = experiment: Inhibition of PP2A-C protein expression in human Hep3B cells at 1 uM incubated for 24 hrs by Western blotting analysis; format: functional, cell-based
Homo sapiens [13] = species on record: Homo sapiens; experiment: Induction of apoptosis in human PLC5 cells assessed as induction of PARP cleavage at 0.5 to 4 uM incubated for 48 hrs by Western blotting analysis; format: functional, cell-based
SK-HEP1 [14] = experiment: Induction of apoptosis in human SKHEP1 cells assessed as induction of DNA fragmentation at 1 uM incubated for 24 hrs by ELISA; format: functional, cell-based
HA22T cell line [15] = experiment: Induction of necrosis in human HA22T cells >= 2 uM incubated for 48 hrs by annexin-V-FITC staining based by flow cytometry relative to control; format: functional
SK-HEP1 [16] = experiment: Induction of apoptosis in human SKHEP1 cells >= 2 uM incubated for 48 hrs by annexin-V-FITC staining based by flow cytometry relative to control; format: functional
HA22T cell line [17] = experiment: Inhibition of PP2A-A protein expression in human HA22T cells at 1 uM incubated for 24 hrs by Western blotting analysis; format: functional, cell-based
Homo sapiens [18] = species on record: Homo sapiens; experiment: Induction of apoptosis in human PLC5 cells with ectopic over expression of myc-tagged CIP2A at 2 uM incubated for 24 hrs by annexin-V-FITC staining based by flow cytometry; format: functional, cell-based
SK-HEP1 [19] = experiment: Inhibition of PP2A-C protein expression in human SKHEP1 cells at 1 uM incubated for 24 hrs by Western blotting analysis; format: functional, cell-based
Hep 3B2 [20] = experiment: Induction of apoptosis in human Hep3B cells assessed as induction of DNA fragmentation at 1 uM incubated for 24 hrs by ELISA; format: functional, cell-based
Homo sapiens [21] = species on record: Homo sapiens; experiment: Induction of apoptosis in human PLC5 cells at 2 uM incubated for 24 hrs in presence of PP2A-C siRNA by annexin-V-FITC staining based by flow cytometry; format: functional, cell-based
Hep 3B2 [22] = experiment: Induction of apoptosis in human Hep3B cells assessed as caspase-3 activation at 0.5 to 4 uM incubated for 48 hrs by Western blotting analysis; format: functional, cell-based
SK-HEP1 [23] = experiment: Inhibition of PP2A-A protein expression in human SKHEP1 cells at 1 uM incubated for 24 hrs by Western blotting analysis; format: functional, cell-based
Homo sapiens [24] = species on record: Homo sapiens; experiment: Inhibition of PP2A-C protein expression in human PLC5 cells at 1 uM incubated for 24 hrs by Western blotting analysis; format: functional, cell-based
SK-HEP1 [25] = experiment: Inhibition of CIP2A protein expression in human SKHEP1 cells assessed as CIP2A protein expression ratio level at 4 uM by Western blotting analysis (; format: functional
SK-HEP1 [26] = experiment: Induction of apoptosis in human SKHEP1 cells assessed as induction of PARP cleavage at 0.5 to 4 uM incubated for 48 hrs by Western blotting analysis; format: functional, cell-based
[27] = Inhibition of CIP2A protein expression in human PLC5 cells assessed as CIP2A protein expression ratio level at 2 uM by Western blotting analysis (Rvb =1); format: functional
Hep 3B2 [28] = experiment: Induction of apoptosis in human Hep3B cells assessed as caspase-9 activation at 0.5 to 4 uM incubated for 48 hrs by Western blotting analysis; format: functional, cell-based
Hep 3B2 [29] = experiment: Induction of apoptosis in human Hep3B cells >= 2 uM incubated for 48 hrs by annexin-V-FITC staining based by flow cytometry relative to control; format: functional
Homo sapiens [30] = species on record: Homo sapiens; experiment: Induction of necrosis in human PLC5cells >= 2 uM incubated for 48 hrs by annexin-V-FITC staining based by flow cytometry relative to control; format: functional
SK-HEP1 [31] = experiment: Induction of necrosis in human SKHEP1 cells >= 2 uM incubated for 48 hrs by annexin-V-FITC staining based by flow cytometry relative to control; format: functional
Homo sapiens [32] = experiment: Antitumor activity against human PLC5 cells xenografted in mouse assessed as reduction in tumor size at 10 mg/kg dosed for 4 weeks; format: functional, organism-based
Homo sapiens [33] = species on record: Homo sapiens; experiment: Induction of apoptosis in human PLC5 cells assessed as accumulation at subG1 phase at 0.5 to 4 uM by flow cytometry; format: functional, cell-based
Homo sapiens [34] = species on record: Homo sapiens; experiment: Inhibition of human CIP2A gene promoter -110/-1 mutant construct activity in human PLC5 cells by luciferase reporter gene assay; format: cell-based
Homo sapiens [35] = species on record: Homo sapiens; experiment: Inhibition of CIP2A mRNA expression in human PLC5 cells at 1 to 4 uM by RT-PCR analysis; format: functional, cell-based
[36] = biological target: T1, Serine/threonine-protein kinase AKT (Homo sapiens); experiment: Inhibition of Akt phosphorylation at S473 residue in human PLC5 cells at 2 uM incubated for 24 hrs in presence of 100 nM PP2A inhibitor okadaic acid by Western blotting analysis; format: cell-based
Hep 3B2 [37] = experiment: Inhibition of CIP2A protein expression in human Hep3B cells assessed as CIP2A protein expression ratio level at 4 uM by Western blotting analysis (Rvb =1); format: functional
[38] = Inhibition of CIP2A protein expression in human PLC5 cells assessed as CIP2A protein expression ratio level at 0.5 uM by Western blotting analysis (Rvb =1); format: functional

T1 sequence (P31749 whole entry, looked up): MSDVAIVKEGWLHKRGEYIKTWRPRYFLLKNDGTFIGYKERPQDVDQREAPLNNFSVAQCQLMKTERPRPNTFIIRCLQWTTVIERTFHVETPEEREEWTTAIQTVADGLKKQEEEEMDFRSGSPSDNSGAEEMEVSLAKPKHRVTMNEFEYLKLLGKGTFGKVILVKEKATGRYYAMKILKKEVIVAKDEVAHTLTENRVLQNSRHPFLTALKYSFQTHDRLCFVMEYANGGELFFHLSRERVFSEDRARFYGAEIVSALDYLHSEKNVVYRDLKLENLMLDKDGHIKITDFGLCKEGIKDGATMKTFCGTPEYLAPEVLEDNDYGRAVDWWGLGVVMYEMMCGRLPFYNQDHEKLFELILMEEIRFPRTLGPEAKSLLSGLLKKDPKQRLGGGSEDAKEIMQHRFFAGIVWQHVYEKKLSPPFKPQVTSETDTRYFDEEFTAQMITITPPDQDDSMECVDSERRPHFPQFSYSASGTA
T1 sequence (P31751 whole entry, looked up): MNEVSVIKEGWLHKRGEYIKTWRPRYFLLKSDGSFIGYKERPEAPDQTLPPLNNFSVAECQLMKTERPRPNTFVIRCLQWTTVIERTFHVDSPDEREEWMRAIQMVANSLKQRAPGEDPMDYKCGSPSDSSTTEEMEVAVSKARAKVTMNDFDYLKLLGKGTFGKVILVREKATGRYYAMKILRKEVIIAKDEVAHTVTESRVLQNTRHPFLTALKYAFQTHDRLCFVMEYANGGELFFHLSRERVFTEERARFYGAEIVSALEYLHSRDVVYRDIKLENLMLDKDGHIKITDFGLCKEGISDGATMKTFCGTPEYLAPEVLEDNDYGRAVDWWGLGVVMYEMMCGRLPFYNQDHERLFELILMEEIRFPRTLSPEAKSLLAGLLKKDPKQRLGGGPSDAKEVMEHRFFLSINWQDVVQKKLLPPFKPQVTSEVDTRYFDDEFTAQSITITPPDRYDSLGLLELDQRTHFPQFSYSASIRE
T1 sequence (Q9Y243 whole entry, looked up): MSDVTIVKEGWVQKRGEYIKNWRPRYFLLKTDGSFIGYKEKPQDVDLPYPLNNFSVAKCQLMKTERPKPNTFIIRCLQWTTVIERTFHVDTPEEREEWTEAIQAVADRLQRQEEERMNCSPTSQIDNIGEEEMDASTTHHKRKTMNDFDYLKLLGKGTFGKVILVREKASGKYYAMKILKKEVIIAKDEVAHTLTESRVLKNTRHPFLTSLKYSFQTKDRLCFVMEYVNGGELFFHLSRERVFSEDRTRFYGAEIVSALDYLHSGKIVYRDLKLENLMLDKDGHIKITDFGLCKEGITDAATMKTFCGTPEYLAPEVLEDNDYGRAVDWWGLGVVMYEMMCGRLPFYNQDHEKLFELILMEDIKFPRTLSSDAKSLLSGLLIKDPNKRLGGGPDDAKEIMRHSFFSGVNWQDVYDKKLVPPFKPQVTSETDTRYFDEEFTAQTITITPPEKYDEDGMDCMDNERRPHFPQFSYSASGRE

inhibition [2]: Dose-dependent effect | inhibition [4]: Dose-dependent effect | MEC (Homo sapiens [11]): 100 to 200 nM | inhibition [36]: inactive
Structure (SMILES): C#Cc1cccc(Nc2nc3ccccc3nc2Nc2cccc(C#C)c2)c1
inhibition (Homo sapiens [1]): inactive | Activity (Homo sapiens [3]): Active | inhibition (HA22T cell line [5]): Tde | Ratio (HA22T cell line [6]): 0.99 | Activity (Homo sapiens [7]): Active | Activity (Hep 3B2 [8]): inactive | Activity (Homo sapiens [9]): Dose-dependent effect | inhibition (Hep 3B2 [10]): Dose-dependent effect | Activity (Mus musculus): Active | inhibition (Hep 3B2 [12]): inactive | Activity (Homo sapiens [13]): Dose-dependent effect | Activity (SK-HEP1 [14]): Active | Activity (HA22T cell line [15]): 50% | Activity (SK-HEP1 [16]): 50% | inhibition (HA22T cell line [17]): inactive | Activity (Homo sapiens [18]): inactive | inhibition (SK-HEP1 [19]): inactive | Activity (Hep 3B2 [20]): Active | Activity (Homo sapiens [21]): inactive | Activity (Hep 3B2 [22]): Dose-dependent effect | inhibition (SK-HEP1 [23]): inactive | inhibition (Homo sapiens [24]): inactive | Ratio (SK-HEP1 [25]): 0.1 | Activity (SK-HEP1 [26]): Dose-dependent effect | Ratio [27]: 0.01 | Activity (Hep 3B2 [28]): Dose-dependent effect | Activity (Hep 3B2 [29]): 50% | Activity (Homo sapiens [30]): 50% | Activity (SK-HEP1 [31]): 50% | Activity (Homo sapiens [32]): Active | Activity (Homo sapiens [33]): Active | inhibition (Homo sapiens [34]): inactive | inhibition (Homo sapiens [35]): Active | Ratio (Hep 3B2 [37]): 0.13 | Ratio [38]: 0.84
